# Assay results as given in patent US12540143B2, “Methods and compositions for targeted protein degradation” (Ranok Therapeutics (Hangzhou) Co. Ltd., priority 2019, dated 2026).
# Key:
# [1] = Pharmacokinetics and tissue distribution in the MV4-11 xenograft model in mice; format: in vivo; conditions: for AUC(0-∞): 5 mg/kg single intravenous dose
# Procedure: Pharmacokinetics and Tissue Distribution
# 15 female CB-17 SCID mice (treated in accordance with AAALAC animal welfare guidelines) were weighed and administered 5 mg/kg of compound 074 by a single intravenous injection. 0.10 mL of blood was collected from each mouse by submandibular vein and sodium heparin was added as an anticoagulant. Samples were collected before compound administration, and at 1 hr, 6 hr 24 hr and 48 hr time points after administration, with 3 mice sampled per time point. After collection, samples were placed on ice and the animals sacrificed to collect tumor and normal tissues. The method development and analysis of all samples were performed by the analytical laboratory at Shanghai Medicilon Inc. Intra-day accuracy evaluation of samples for quality control was carried out during sample analysis and a quality control accuracy of more than 66.7% of samples was required between to be 80-120%. Pharmacokinetic parameters were calculated using Phoenix WinNonlin7.0 software.
# BRPF1 = BRPF1 (Homo sapiens, UniProt P55201); experiment: Bromodomain Binding Assay; conditions: 10 μM Compound 074, read-out: Bromodomain Binding % of Control
# ATAD2 = ATAD2 (Homo sapiens, UniProt Q6PL18); experiment: Bromodomain Binding Assay; conditions: 10 μM Compound 074, read-out: Bromodomain Binding % of Control
# PBRM1 BD5 = PBRM1 BD5 (Homo sapiens, UniProt Q86U86); experiment: Bromodomain Binding Assay; conditions: 10 μM Compound 074, read-out: Bromodomain Binding % of Control
# [2] = test system: MV4-11 acute myeloid leukemia xenograft; experiment: MV4-11 AML xenograft model in mice; conditions: for tumor growth inhibition (FIG. 3a): after 3 weeks of dosing
# Procedure: MV4-11 cells were plated in a 96-well tissue culture plate at a density of 4,500 cells/90 μL/well and incubated at 37° C./5% CO2 for 24 hr. Cells were then treated with compounds at various concentrations (a 10-point, 3-fold serial dilution series starting at 20 μM) with a final concentration of 0.5% DMSO/well and then incubated in 37° C./5% CO2 for 72 hr. 10 μL the cell proliferation reagent CCK-8 (WST-8) was added into each well and incubated at 37° C./5% CO2 for 3-4 hr and the absorbance at 450 nm measured with an En Vision Plate Reader.
# MV4-11 acute myeloid leukemia and SU-DHL-4 diffuse large B-cell lymphoma (ATCC, #CRL-2957) cells were cultured in medium supplemented with 10% fetal bovine serum at 37° C./5% CO2. 5×10^6 MV-4-11 or 1×10^7 SU-DHL-4 cells were collected and re-suspended in 0.1 mL of serum-free media with Matrigel (1:1 v/v) per mouse for subcutaneous inoculation in isoflurane anesthetized male BALB/c nude or C.B-17 scid mice, respectively (treated in accordance with AAALAC animal welfare guidelines). When the average tumor volumes reached 100-200 mm^3, tumor volume outliers were removed and the remaining animals randomly divided into groups of 6-8 with similar average tumor volumes in each group. […] The appearance and behavior of each mouse was observed and recorded daily. Body weights and tumor volumes were measured and recorded every 2-4 days and the results were expressed as group means±SEM. Pairwise statistical comparisons between groups were performed by one-way ANOVA, and p<0.05 was considered statistically significant.
# SMARCA4 = target: T1, SMARCA4 (Homo sapiens, UniProt P51532); experiment: Bromodomain Binding Assay; conditions: 10 μM Compound 074, read-out: Bromodomain Binding % of Control
# T1 construct: made in house; host or cells: T7 phage grown in E. coli host derived from BL21
# BRWD1 BD2 = target: T2, BRWD1 BD2 (Homo sapiens, UniProt Q9NSI6); experiment: Bromodomain Binding Assay; conditions: 10 μM Compound 074, read-out: Bromodomain Binding % of Control
# T2 construct: made in house; host or cells: T7 phage grown in E. coli host derived from BL21
# BRPF3 = BRPF3 (Homo sapiens, UniProt Q9ULD4); experiment: Bromodomain Binding Assay; conditions: 10 μM Compound 074, read-out: Bromodomain Binding % of Control
# BRD4 = target: T3, BRD4 (Homo sapiens, UniProt O60885); experiment: BRD4 western blotting in MV4-11 cells; format: cell-based
# T3 construct: endogenous in cells; host or cells: MV4-11
# Procedure: Cells were then collected by centrifugation, washed one time with cold PBS, supernatants aspirated and cell pellets lysed with 4° C. RIPA lysis buffer containing a protease/phosphatase inhibitor cocktail. The total protein concentrations of cell lysates were determined by BCA Protein Assay kit. Samples were normalized for equivalent protein concentrations, 5× loading buffer added and heated to 100° C. for 10 min and cooled to room temperature. 20 μl of each sample/well was loaded on a SDS-PAGE gel and electrophoresed for 20 min at 80 V, then 120 V for 1.5 hr. Gels were then electroblotted to nitrocellulose membranes using a wet-transfer method at 250 mA for 2.5 hr. Membranes were incubated with blocking buffer for 1 hr and washed 3 times with TBST for 5 min. Then membranes were incubated with anti-BRD4 (Cell Signaling Technology, #13440) and anti-beta-Actin (Cell Signaling Technology, #3700) antibodies diluted in blocking buffer per the manufacturer's recommendation at 4° C. overnight. After washing 3 times, blots were incubated with the appropriate labeled secondary antibody for 1 hr at room temperature and washed again. Images were read on a LI-COR and the optical density values of bands determined by ImageJ software. Data was analyzed using GraphPad Prism 7.0.
# BRDT BD2 = BRDT BD2 (Homo sapiens, UniProt Q58F21); experiment: Bromodomain Binding Assay; conditions: 10 μM Compound 074, read-out: Bromodomain Binding % of Control
# EP300 = EP300 (Homo sapiens, UniProt Q09472); experiment: Bromodomain Binding Assay; conditions: 10 μM Compound 074, read-out: Bromodomain Binding % of Control
# BRD4 BD1 = BRD4 BD1 (Homo sapiens, UniProt O60885); experiment: Bromodomain Binding Assay; conditions: 10 μM Compound 074, read-out: Bromodomain Binding % of Control
# HSP90α = HSP90α (Homo sapiens, UniProt P07900); experiment: HSP90α Binding Fluorescent Polarization (FP) Assay; conditions: as shown in Table 1
# Procedure: HSP90α Binding Fluorescent Polarization (FP) Assay
# A master mix was prepared with assay buffer, BSA and FITC-geldanamycin. In a 96-well plate, a serial 3-fold dilution of each compound was prepared ranging from 40 μM down until 2.0 nM. Also in a 96-well plate, recombinant HSP90α protein was diluted to 28 μg/ml. Then, in a 384-well plate, 10 μl of master mix and 5 μl of compound dilution were added per well to duplicate wells and mixed by brief shaking. Then 5 μl of diluted HSP90α protein was added per well, mixed by brief shaking, incubated at 25° C. for 30, 60 and 120 min and fluorescence was measured on an En Vision Plate Reader. Background-subtracted mP values were calculated from En Vision raw data and a four-parameter “log[inhibitor] vs. response” curve was fitted using GraphPad Prism 7.0.
# BRD1 = BRD1 (Homo sapiens, UniProt O95696); experiment: Bromodomain Binding Assay; conditions: 10 μM Compound 074, read-out: Bromodomain Binding % of Control
# Sequence of BRD1 (O95696 562-666 limits assumed): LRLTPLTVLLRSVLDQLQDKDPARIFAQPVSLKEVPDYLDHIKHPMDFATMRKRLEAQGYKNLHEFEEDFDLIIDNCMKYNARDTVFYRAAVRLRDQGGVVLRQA
# Sequence of ATAD2 (Q6PL18 980-1092 limits assumed): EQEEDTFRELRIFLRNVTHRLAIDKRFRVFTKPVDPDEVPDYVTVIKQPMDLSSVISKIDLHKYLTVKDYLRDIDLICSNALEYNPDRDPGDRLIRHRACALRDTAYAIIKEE
# T2 sequence (Q9NSI6 1313-1418 limits assumed): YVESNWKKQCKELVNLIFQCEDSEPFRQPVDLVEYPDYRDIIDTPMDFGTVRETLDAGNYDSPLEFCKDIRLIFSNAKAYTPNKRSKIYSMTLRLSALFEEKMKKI
# Sequence of PBRM1 BD5 (Q86U86 653-763 limits assumed): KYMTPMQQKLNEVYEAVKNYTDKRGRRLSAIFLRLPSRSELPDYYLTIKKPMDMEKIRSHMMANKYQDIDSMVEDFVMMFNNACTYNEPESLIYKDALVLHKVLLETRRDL
# Sequence of BRPF1 (P55201 628-732 limits assumed): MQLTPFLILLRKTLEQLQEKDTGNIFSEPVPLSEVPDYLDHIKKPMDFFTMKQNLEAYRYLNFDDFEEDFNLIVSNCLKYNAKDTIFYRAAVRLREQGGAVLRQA
# T1 sequence (P51532 1453-1564 limits assumed): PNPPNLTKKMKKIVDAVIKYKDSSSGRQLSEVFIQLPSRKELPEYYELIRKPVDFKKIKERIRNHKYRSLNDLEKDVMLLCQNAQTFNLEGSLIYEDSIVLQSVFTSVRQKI
# Sequence of EP300 (Q09472 1049-1156 limits assumed): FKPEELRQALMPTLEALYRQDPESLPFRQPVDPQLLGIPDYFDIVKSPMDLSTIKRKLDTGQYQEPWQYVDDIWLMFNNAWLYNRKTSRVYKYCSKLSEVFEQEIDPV
# Sequence of BRPF3 (Q9ULD4 589-693 limits assumed): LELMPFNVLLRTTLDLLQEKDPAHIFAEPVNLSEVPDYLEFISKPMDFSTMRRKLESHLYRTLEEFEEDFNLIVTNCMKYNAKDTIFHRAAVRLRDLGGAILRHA
structure (smiles),measurement,setting,value
"Cc1sc2c(c1C)C(c1ccc(Cl)cc1)=N[C@@H](CC(=O)N1CCC(CN3CCN(Cc4ccc(-n5c(O)nnc5-c5cc(C(C)C)c(O)cc5O)cc4)CC3)CC1)c1nnc(C)n1-2.Cl [Compound 74, (S)-2-(4-(4-chlorophenyl)-2,3,9-trimethyl-6H-thieno[3,2-f][1,2,4]triazolo[4,3-a][1,4]diazepin-6-yl)-1-(4-((4-(4-(3-(2,4-dihydroxy-5-isopropylphenyl)-5-hydroxy-4H-1,2,4-triazol-4-yl)benzyl)piperazin-1-yl)methyl)piperidin-1-yl)ethan-1-one hydrochloride]",AUC(0-∞),[1]; Heart,8828.71 ng·h/g
same,AUC(0-∞),[1]; Liver,24415.49 ng·h/g
same,AUC(0-∞),[1]; Lung,14199.86 ng·h/g
same,AUC(0-∞),[1]; Tumor,23857.20 ng·h/g
same,half-life in tumors relative to plasma and other organs,[1]; times as long as in plasma and other organs,4.6-9.5 times
same,remaining activity at 10 µM,BRPF1,> 75%
same,remaining activity at 10 µM,ATAD2,> 75%
same,remaining activity at 10 µM,PBRM1 BD5,> 75%
same,animals tumor free at the end of the study,[2]; 50 mg/kg intravenous 1×/week,1 out of 6
same,tumor growth inhibition (FIG. 3a),[2]; 50 mg/kg intravenous 1×/week,significant tumor growth inhibition
same,animals tumor free at the end of the study,[2]; 100 mg/kg intravenous 1×/week,4 out of 6
same,tumor growth inhibition (FIG. 3a),[2]; 100 mg/kg intravenous 1×/week,significant tumor growth inhibition
same,animal deaths and body weights (FIG. 3b),"[2]; any group, MV4-11 xenograft",No animal deaths or significant effects on body weights were observed
same,remaining activity at 10 µM,SMARCA4,> 75%
same,remaining activity at 10 µM,BRWD1 BD2,> 75%
same,remaining activity at 10 µM,BRPF3,> 75%
same,BRD4 degradation by western blotting with proteasome inhibitor bortezomib (FIG. 2),BRD4; MV4-11 cells treated with both compound 074 and bortezomib,BRD4 degradation was blocked
same,BRD4 degradation by western blotting (FIG. 1),"BRD4; MV4-11 cells, 24 hr, 100 and 300 nM",BRD4 degradation was observed
same,remaining activity at 10 µM,BRDT BD2,< 10%
same,remaining activity at 10 µM,EP300,11 to 75%
same,remaining activity at 10 µM,BRD4 BD1,< 10%
same,potency in binding to HSP90 (in words),HSP90α,moderate potency
same,remaining activity at 10 µM,BRD1,> 75%
